“Also recorded” adds a separate entry of the source. Read-outs that look alike come from different tables or passages of the source. Each block holds one compound with its values, some of them ahead of it.
Experiments:
[1] = Moisture sorption analysis; assay type: physicochemical; details: 25° C.
Protocol: Moisture Sorption Analysis was performed with a Hiden IGAsorp Moisture Sorption Instrument. […] The samples were allowed to equilibrate to an asymptotic weight at each point for a maximum of 4 hours. […] The resulting samples after desorption were dried at 80° C. for two hours and analyzed by XRPD.

[2] = Form conversion and degradation under thermal stress
Protocol: Studies were also conducted to evaluate the likelihood for conversion and degradation under thermal stress.

[3] = Slurry studies of solid form inter-conversion; assay type: physicochemical; details: for propensity of inter-conversion of the solid form in slurry: room temperature, absence of light, up to 14 days, solvents per substance (water, IPA, CH2Cl2, toluene, n-heptane, EtOAc, MeCN, THF, t-AmOH); for Slurries: diazoxide potassium salt, room-temperature slurry
[4] = test system: Zucker Diabetic Fatty (ZDF) rats; details: 150 mg/kg/day, 8 weeks; cited from earlier work
[5] = test system: Zucker rats; details: oral 1-10 mg/kg/day for 14 days; cited from earlier work
[6] = test system: healthy volunteers
Protocol: (§1) A randomized double-blind, placebo-controlled clinical trial was conducted in 24 healthy volunteers. They were randomized in a 2:1 ratio of treated to placebo. […] The dose was administered once per day in the morning for a period of 7 days. A number of lipid parameters were measured at baseline and again on day 7 including fasting triglycerides, total cholesterol, LDL cholesterol, HDL cholesterol, and non-HDL cholesterol. Additionally, blood pressure was measured on a daily basis.

[7] = test system: healthy volunteers; remark: listed apart in the source
Protocol: as §1
In PK008, the dose was administered as one and one ½ tablet formulation K′.

[8] = test system: hypertriglyceridemic patients; experiment: Clinical study in 12 hypertriglyceridemic patients (formulation U / K′ crossover): lipids; assay type: in vivo, human; details: 435 mg/day diazoxide choline once per day, 15 days
Protocol: A clinical study was conducted in 12 hypertriglyceridemic patients. […] Treatment continued for 16 days. The endpoint of the study was percentage change from baseline to day 15 of triglycerides, total cholesterol, LDL cholesterol, HDL cholesterol and non-HDL cholesterol. Lipid parameters were measured at baseline and on days 7 and 15. Blood pressure was collected at multiple time points.

[9] = Excipient compatibility study for diazoxide choline salt; assay type: physicochemical
[10] = 60° C., closed environment, protected from light, 7 and 14 days, XRPD, DSC, HPLC
[11] = Study EC004, 435 mg, 7 days, Baseline
[12] = Study EC004, 435 mg, 7 days, End of treatment
[13] = Study TR002, 508 mg, 49 days, Baseline
[14] = Study TR002, 508 mg, 49 days, End of treatment

SMILES: CC1=Nc2ccc(Cl)cc2S(=O)(=O)[N-]1.C[N+](C)(C)CCO [Diazoxide choline salt Form A]
- Moisture sorption (hygroscopicity) [1]: hygroscopic solid
- water absorbed at 60% RH ([1]; listed as Form A): 2.4 wt %
- conversion and degradation under thermal stress [2]: Started to convert to Form
- propensity of inter-conversion of the solid form in slurry ([3]; listed as Form A): conversion to Form B was observed after seven days; also recorded: readily converted to Form B in all slurry solvents utilized; also recorded: Converted to Form B after

SMILES: N#CNC(=NCCc1ccccc1Cl)c1cncc(N)c1 [KRN4884]
- serum triglyceride levels [5]: dose dependently reduce serum triglyceride levels

SMILES: CC1=Nc2ccc(Cl)cc2S(=O)(=O)[N-]1.C[N+](C)(C)CCO [Choline diazoxide salt]
- conversion and degradation under thermal stress [2]: did not show any significant degradation
- propensity of inter-conversion of the solid form in slurry ([3]; listed as choline salt): no propensity of inter-conversion
- HDL cholesterol, mean ± SEM ([6]; 300 mg diazoxide/day, Baseline): 49 ± 3.3 mg/dL
- LDL cholesterol, mean ± SEM ([6]; 300 mg diazoxide/day, Baseline): 111 ± 5.8 mg/dL
- Total cholesterol, mean ± SEM ([6]; 300 mg diazoxide/day, Baseline): 175 ± 7.5 mg/dL
- Triglycerides, mean ± SEM ([6]; 300 mg diazoxide/day, Baseline): 76 ± 7.8 mg/dL
- non-HDL cholesterol, mean ± SEM ([6]; 300 mg diazoxide/day, Baseline): 126 ± 6.6 mg/dL
- HDL cholesterol, Percent change from baseline ([6]; 300 mg diazoxide/day, Day 7): 8.2%
- HDL cholesterol, mean ± SEM ([6]; 300 mg diazoxide/day, Day 7): 53 ± 2.9 mg/dL
- LDL cholesterol, Percent change from baseline ([6]; 300 mg diazoxide/day, Day 7): −5.4%
- LDL cholesterol, mean ± SEM ([6]; 300 mg diazoxide/day, Day 7): 105 ± 4.9 mg/dL
- Total cholesterol, Percent change from baseline ([6]; 300 mg diazoxide/day, Day 7): −2.3%
- Total cholesterol, mean ± SEM ([6]; 300 mg diazoxide/day, Day 7): 171 ± 6.4 mg/dL
- Triglycerides, Percent change from baseline ([6]; 300 mg diazoxide/day, Day 7): −13.2%
- Triglycerides, mean ± SEM ([6]; 300 mg diazoxide/day, Day 7): 66 ± 3.9 mg/dL
- non-HDL cholesterol, Percent change from baseline ([6]; 300 mg diazoxide/day, Day 7): −6.3%
- non-HDL cholesterol, mean ± SEM ([6]; 300 mg diazoxide/day, Day 7): 118 ± 5.5 mg/dL
- reduction in total cholesterol, LDL cholesterol and non-HDL cholesterol vs placebo arm ([6]; baseline to day 7, 300 mg/day diazoxide as formulation U): greater for each lipid parameter than the corresponding reduction in the placebo arm
- Diastolic blood pressure [7, 11]: 69.4 mmHg
- Systolic blood pressure [7, 11]: 113.2 mmHg
- Diastolic blood pressure [7, 12]: 63.2 mmHg
- Systolic blood pressure [7, 12]: 113.5 mmHg
- Diastolic blood pressure [7, 13]: 77.7 mmHg
- Systolic blood pressure [7, 13]: 118.1 mmHg
- Diastolic blood pressure [7, 14]: 67.0 mmHg
- Systolic blood pressure [7, 14]: 117.0 mmHg
- lipid response [8]: marked reductions in triglycerides, total cholesterol, LDL cholesterol, and nonHDL cholesterol and a marked increase in HDL cholesterol

SMILES: C1COCCO1.CC1=NS(=O)(=O)c2cc(Cl)ccc2[N-]1.CC1=NS(=O)(=O)c2cc(Cl)ccc2[N-]1.[K+].[K+] [Diazoxide potassium salt Form F]
- Moisture sorption (hygroscopicity) [1]: hygroscopic solid
- Thermal ([2]; diazoxide potassium salt, thermal stress, 7 days): Stable (7 days)
- Slurries [3]: Converted to Form D
- propensity of inter-conversion of the solid form in slurry [3]: readily converted to Form D in all slurry solvents utilized; also recorded: conversion to Form D was observed in all solvents

The next lines start with results.

- water absorbed at 60% RH [1]: 5.4 wt %
- water absorbed at 90% RH [1]: 38.3 wt %
- conversion and degradation under thermal stress [2, 10]: did not show any significant degradation
- propensity of inter-conversion of the solid form in slurry [3]: no propensity of inter-conversion
SMILES: CC1=NS(=O)(=O)c2cc(Cl)ccc2[N-]1.[K+] [Potassium diazoxide salt]

- water absorbed at 60% RH [1]: approximately 0.04 wt %
- water absorbed at 90% RH [1]: ~0.20 wt %
- Moisture sorption (hygroscopicity) ([1]; listed as Free form): no hysteresis
- conversion and degradation under thermal stress [2, 10]: no conversion or degradation
SMILES: CC1=Nc2ccc(Cl)cc2S(=O)(=O)N1 [Diazoxide, 7-chloro-3-methyl-2H-1,2,4-benzothiadiazine 1,1 dioxide, reference compound]
- propensity of inter-conversion of the solid form in slurry [3]: did not convert to alternate crystal forms
- hepatic lipid contents [4]: decreased hepatic triglycerides, long chain acyl-CoA and cholesterol contents

- Slurries [3]: Converted to Form D
SMILES: CC1=NS(=O)(=O)c2cc(Cl)ccc2[N-]1.CC1=NS(=O)(=O)c2cc(Cl)ccc2[N-]1.O.[K+].[K+] [Diazoxide potassium salt Form D]

- water absorbed at 60% RH ([1]; listed as Form B): 7.4 wt %
- conversion and degradation under thermal stress [2]: Stable after 14 days at
SMILES: CC1=Nc2ccc(Cl)cc2S(=O)(=O)[N-]1.C[N+](C)(C)CCO [Diazoxide choline salt Form B]
- propensity of inter-conversion of the solid form in slurry ([3]; listed as Form B): form conversion was not observed; also recorded: Stable after 14 days in

- water absorbed at 60% RH [1]: 1.2 wt %
- water absorbed at 80% RH ([1]; 80% RH): 6.6 wt %
- propensity of inter-conversion of the solid form in slurry [3]: no propensity of inter-conversion
SMILES: CC1=NS(=O)(=O)c2cc(Cl)ccc2[N-]1.[Na+] [Sodium diazoxide salt]
- conversion and degradation under thermal stress [2, 10]: little propensity to change form or degrade

- 1 Month 40° C./75% RH % (w/w) ([9]; one-month storage 40° C./75% RH): 99.0 % (w/w)
- 1 Month 50° C. % (w/w) ([9]; one-month storage 50° C.): 99.4 % (w/w)
SMILES: CC1=Nc2ccc(Cl)cc2S(=O)(=O)N1 [Diazoxide Control]

Reference: patent publication US9765043B2, “Salts of potassium ATP channel openers and uses thereof” (Essentialis, Inc., priority 2012, dated 2017)
